Measured values published in ChEMBL document CHEMBL5303765, “Data for DCP probe BAY-7081” (2023).

Assays:
[1] = molecular target: Serine/threonine-protein kinase 26 (Homo sapiens) (UniProt Q9P289); assay: MST4 SGC Tm panel (DSF); conditions: for ΔTm: Compound concentration 10.0 uM
[2] = molecular target: Ribosomal protein S6 kinase alpha-5 (Homo sapiens) (UniProt O75582); assay: RPS6KA5 SGC Tm panel (DSF); conditions: for ΔTm: Compound concentration 10.0 uM
[3] = molecular target: Histamine H3 receptor (Homo sapiens) (UniProt Q9Y5N1); conditions: Compound concentration 10.0 uM
[4] = molecular target: Serine/threonine-protein kinase Chk2 (Homo sapiens) (UniProt O96017); assay: CHEK2 SGC Tm panel (DSF); conditions: for ΔTm: Compound concentration 10.0 uM
[5] = molecular target: Serine/threonine-protein kinase B-raf (Homo sapiens) (UniProt P15056); assay: BRAF SGC Tm panel (DSF); conditions: for ΔTm: Compound concentration 10.0 uM
[6] = molecular target: T1, Serine/threonine-protein kinase haspin (Homo sapiens) (UniProt Q8TF76); assay: GSG2 SGC Tm panel (DSF); conditions: for ΔTm: Compound concentration 10.0 uM
T1 sequence (whole entry): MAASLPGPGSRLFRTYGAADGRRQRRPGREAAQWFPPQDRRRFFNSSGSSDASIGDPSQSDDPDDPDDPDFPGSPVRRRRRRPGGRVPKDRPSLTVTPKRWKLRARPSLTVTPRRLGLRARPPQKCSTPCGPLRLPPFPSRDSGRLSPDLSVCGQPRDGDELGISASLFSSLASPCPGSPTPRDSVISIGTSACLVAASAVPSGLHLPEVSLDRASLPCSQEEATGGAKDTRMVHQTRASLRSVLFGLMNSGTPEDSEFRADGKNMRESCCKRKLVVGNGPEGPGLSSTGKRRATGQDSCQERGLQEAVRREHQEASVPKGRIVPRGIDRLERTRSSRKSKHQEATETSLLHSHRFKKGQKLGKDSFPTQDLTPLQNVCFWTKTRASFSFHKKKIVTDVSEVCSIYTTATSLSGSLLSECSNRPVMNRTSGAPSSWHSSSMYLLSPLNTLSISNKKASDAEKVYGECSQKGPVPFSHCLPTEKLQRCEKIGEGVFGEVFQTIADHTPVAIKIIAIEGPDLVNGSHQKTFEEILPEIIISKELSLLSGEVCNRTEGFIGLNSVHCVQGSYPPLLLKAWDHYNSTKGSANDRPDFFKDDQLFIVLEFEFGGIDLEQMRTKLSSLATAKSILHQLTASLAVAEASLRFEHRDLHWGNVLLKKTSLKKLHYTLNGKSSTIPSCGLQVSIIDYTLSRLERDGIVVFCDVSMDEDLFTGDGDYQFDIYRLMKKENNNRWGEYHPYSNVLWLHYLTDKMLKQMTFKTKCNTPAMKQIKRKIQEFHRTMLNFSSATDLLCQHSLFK

[7] = molecular target: Muscarinic acetylcholine receptor M3 (Homo sapiens) (UniProt P20309); conditions: Compound concentration 10.0 uM
[8] = molecular target: T2, Alpha-2C adrenergic receptor (Homo sapiens) (UniProt P18825); conditions: Compound concentration 10.0 uM
T2 sequence (whole entry): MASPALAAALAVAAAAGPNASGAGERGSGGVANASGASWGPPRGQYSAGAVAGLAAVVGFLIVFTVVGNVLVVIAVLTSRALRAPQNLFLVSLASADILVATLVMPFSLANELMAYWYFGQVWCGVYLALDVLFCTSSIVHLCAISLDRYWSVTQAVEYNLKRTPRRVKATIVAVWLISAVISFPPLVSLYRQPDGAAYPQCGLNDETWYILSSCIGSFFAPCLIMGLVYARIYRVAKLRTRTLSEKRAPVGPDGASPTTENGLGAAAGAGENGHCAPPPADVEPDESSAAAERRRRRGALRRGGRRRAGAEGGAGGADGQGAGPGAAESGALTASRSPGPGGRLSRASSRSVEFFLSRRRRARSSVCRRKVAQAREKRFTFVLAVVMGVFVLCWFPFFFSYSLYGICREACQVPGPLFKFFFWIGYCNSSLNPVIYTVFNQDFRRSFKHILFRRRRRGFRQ

[9] = molecular target: Serine/threonine-protein kinase MRCK alpha (Homo sapiens) (UniProt Q5VT25); assay: CDC42BPA SGC Tm panel (DSF); conditions: for ΔTm: Compound concentration 10.0 uM
[10] = molecular target: Serine/threonine-protein kinase Nek7 (Homo sapiens) (UniProt Q8TDX7); assay: NEK7 SGC Tm panel (DSF); conditions: for ΔTm: Compound concentration 10.0 uM
[11] = molecular target: Cyclin-dependent kinase 16 (Homo sapiens) (UniProt Q00536); assay: PCTK1 SGC Tm panel (DSF); conditions: for ΔTm: Compound concentration 10.0 uM
[12] = molecular target: 5-hydroxytryptamine receptor 2A (Homo sapiens) (UniProt P28223); conditions: Compound concentration 10.0 uM
[13] = molecular target: Beta-2 adrenergic receptor (Homo sapiens) (UniProt P07550); conditions: Compound concentration 10.0 uM
[14] = molecular target: GABA-A receptor; anion channel (Rattus norvegicus) (UniProt O09028+P15431+P18506+P18508+P19969+P20236+P23574+P23576+P28471+P28473+P30191+P62813+P63079+P63138+Q91ZM7+Q9ES14); conditions: Compound concentration 10.0 uM
[15] = molecular target: T3, Muscarinic acetylcholine receptor M1 (Homo sapiens) (UniProt P11229); conditions: Compound concentration 10.0 uM
T3 sequence (whole entry): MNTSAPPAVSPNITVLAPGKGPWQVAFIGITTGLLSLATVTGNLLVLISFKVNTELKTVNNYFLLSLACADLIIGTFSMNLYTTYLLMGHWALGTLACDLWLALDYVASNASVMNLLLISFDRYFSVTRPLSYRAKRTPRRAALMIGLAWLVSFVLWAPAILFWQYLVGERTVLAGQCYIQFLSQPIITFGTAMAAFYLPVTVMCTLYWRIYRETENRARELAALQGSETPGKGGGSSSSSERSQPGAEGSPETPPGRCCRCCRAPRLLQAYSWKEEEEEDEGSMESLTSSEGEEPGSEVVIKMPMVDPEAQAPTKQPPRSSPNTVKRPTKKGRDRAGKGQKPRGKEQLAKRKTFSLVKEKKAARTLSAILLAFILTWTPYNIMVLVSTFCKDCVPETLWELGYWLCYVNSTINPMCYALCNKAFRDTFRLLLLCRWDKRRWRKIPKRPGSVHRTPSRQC

[16] = molecular target: Vascular endothelial growth factor receptor 1 (Homo sapiens) (UniProt P17948); assay: FLT1 SGC Tm panel (DSF); conditions: for ΔTm: Compound concentration 10.0 uM
[17] = molecular target: Dual specificity protein kinase CLK1 (Homo sapiens) (UniProt P49759); assay: CLK1 SGC Tm panel (DSF); conditions: for ΔTm: Compound concentration 10.0 uM
Dual specificity protein kinase CLK1 (Homo sapiens), sequence (P49759 whole entry, looked up): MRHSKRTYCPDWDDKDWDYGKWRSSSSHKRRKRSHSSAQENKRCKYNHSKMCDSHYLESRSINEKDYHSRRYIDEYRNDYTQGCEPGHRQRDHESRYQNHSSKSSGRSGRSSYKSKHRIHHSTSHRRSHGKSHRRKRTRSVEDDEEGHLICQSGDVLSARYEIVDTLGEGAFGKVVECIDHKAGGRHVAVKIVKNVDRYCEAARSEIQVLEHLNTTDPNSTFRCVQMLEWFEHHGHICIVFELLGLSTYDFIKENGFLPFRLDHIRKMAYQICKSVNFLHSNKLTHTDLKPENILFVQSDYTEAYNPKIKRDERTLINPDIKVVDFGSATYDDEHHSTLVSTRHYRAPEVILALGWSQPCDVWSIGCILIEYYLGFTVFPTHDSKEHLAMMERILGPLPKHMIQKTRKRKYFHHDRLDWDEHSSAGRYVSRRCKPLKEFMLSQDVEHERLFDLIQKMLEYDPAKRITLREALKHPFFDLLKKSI

5-hydroxytryptamine receptor 2A (Homo sapiens), sequence (P28223 whole entry): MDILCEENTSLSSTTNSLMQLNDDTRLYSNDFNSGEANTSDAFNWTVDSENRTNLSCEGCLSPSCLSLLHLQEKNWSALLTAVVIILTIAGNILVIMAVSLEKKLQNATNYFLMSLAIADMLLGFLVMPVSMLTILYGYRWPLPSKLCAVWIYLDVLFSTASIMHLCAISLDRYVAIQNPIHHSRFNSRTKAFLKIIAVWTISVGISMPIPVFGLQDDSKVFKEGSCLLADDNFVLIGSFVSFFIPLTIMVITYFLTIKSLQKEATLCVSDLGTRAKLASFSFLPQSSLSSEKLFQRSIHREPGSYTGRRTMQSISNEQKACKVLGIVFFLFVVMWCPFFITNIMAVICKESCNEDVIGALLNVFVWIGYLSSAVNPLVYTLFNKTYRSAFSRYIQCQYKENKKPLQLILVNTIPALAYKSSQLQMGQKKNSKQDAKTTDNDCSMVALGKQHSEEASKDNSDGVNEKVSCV
Serine/threonine-protein kinase B-raf (Homo sapiens), sequence (P15056 whole entry): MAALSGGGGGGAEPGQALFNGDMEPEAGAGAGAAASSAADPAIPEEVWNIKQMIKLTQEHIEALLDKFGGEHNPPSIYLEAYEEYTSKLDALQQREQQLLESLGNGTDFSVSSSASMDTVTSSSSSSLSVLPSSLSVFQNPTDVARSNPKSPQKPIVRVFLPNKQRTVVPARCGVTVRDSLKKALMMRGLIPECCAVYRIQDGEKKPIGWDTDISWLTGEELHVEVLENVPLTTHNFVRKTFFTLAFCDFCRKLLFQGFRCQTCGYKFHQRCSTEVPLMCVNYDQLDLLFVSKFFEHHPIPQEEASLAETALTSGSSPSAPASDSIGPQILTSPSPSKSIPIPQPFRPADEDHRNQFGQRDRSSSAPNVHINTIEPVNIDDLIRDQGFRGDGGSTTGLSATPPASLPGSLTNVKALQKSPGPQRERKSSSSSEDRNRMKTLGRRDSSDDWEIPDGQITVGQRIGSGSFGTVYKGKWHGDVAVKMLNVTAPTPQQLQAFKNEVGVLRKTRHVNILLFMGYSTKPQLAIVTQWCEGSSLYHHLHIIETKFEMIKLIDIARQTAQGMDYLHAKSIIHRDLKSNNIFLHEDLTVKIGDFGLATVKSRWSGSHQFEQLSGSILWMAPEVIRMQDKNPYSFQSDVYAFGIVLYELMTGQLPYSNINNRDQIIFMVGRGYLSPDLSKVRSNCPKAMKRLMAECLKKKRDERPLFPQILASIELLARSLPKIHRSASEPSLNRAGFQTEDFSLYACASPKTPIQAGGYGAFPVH
Serine/threonine-protein kinase MRCK alpha (Homo sapiens), sequence (Q5VT25 whole entry, looked up): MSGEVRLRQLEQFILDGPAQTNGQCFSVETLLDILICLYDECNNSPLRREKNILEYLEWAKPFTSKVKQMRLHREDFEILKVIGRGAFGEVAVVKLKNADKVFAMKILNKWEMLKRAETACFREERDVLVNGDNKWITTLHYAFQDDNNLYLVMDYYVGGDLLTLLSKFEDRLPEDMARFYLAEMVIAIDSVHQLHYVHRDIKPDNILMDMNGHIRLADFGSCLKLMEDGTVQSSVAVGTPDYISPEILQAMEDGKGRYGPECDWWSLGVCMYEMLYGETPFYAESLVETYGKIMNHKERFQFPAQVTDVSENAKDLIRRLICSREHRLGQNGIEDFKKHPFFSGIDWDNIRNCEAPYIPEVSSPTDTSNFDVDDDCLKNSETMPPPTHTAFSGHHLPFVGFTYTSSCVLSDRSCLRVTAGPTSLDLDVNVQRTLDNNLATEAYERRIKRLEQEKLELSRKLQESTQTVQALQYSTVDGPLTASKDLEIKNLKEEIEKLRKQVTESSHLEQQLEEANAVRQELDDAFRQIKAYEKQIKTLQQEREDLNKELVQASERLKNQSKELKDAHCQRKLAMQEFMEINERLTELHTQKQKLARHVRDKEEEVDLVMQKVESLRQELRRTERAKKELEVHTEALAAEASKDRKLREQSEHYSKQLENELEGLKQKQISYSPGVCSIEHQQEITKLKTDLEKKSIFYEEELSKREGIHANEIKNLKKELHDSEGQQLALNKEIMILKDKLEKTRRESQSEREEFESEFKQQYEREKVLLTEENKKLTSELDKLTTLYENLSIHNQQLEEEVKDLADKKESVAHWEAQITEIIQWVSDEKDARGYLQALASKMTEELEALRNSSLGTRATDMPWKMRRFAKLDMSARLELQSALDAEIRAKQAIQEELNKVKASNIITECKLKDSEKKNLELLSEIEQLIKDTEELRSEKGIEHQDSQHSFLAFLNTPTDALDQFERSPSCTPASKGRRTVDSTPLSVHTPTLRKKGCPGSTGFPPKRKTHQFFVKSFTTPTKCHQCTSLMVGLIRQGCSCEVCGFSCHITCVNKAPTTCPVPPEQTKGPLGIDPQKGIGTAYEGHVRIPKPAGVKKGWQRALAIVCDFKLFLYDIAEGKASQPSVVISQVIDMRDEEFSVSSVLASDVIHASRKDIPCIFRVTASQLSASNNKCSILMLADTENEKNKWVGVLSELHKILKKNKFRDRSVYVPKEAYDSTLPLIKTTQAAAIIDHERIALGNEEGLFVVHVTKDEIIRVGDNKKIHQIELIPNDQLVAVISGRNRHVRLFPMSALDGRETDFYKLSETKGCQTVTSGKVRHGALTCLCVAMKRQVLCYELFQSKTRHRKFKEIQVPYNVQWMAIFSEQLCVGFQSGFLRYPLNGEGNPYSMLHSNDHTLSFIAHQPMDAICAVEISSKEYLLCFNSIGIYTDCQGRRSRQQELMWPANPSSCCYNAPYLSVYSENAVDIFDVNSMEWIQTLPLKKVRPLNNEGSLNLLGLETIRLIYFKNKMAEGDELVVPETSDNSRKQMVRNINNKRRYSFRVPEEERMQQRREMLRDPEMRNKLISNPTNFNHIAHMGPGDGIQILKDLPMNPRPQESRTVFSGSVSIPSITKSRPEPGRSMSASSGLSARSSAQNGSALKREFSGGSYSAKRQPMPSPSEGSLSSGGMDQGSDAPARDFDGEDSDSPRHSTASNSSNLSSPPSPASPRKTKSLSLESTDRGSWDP
Serine/threonine-protein kinase Chk2 (Homo sapiens), sequence (O96017 whole entry): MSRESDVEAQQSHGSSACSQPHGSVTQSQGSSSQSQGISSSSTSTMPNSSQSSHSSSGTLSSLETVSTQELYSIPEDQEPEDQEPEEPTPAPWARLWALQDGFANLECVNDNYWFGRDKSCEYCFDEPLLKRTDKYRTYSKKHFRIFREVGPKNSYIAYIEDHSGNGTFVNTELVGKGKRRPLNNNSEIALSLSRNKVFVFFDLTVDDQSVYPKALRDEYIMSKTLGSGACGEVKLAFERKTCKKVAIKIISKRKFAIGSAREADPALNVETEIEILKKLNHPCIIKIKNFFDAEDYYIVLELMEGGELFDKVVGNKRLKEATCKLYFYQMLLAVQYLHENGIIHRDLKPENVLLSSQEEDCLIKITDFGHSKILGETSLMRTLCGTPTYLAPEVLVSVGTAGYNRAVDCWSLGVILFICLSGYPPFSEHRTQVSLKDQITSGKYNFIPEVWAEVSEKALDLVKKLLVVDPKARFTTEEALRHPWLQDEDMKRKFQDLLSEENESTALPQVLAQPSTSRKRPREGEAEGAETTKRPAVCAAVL
Serine/threonine-protein kinase Nek7 (Homo sapiens), sequence (Q8TDX7 whole entry, looked up): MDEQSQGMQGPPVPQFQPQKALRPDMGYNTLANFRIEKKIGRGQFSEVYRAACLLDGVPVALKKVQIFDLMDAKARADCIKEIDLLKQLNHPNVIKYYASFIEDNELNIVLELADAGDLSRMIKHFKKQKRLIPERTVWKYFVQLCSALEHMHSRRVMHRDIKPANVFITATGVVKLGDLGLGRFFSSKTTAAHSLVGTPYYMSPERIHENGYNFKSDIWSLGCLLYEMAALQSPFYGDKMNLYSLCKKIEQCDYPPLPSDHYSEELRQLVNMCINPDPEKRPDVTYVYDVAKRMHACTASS
Histamine H3 receptor (Homo sapiens), sequence (Q9Y5N1 whole entry): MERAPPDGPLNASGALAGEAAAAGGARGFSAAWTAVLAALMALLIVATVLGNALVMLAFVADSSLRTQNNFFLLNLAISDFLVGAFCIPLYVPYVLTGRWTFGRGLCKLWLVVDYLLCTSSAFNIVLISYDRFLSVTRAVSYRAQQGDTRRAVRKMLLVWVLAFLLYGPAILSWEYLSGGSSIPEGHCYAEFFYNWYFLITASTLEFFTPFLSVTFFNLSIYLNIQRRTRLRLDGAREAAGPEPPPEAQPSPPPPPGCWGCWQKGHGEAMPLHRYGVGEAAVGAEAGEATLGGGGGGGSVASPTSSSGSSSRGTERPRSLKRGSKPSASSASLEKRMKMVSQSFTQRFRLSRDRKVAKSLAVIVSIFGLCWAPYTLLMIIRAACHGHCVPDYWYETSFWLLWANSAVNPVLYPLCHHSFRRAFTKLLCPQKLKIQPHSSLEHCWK

## CCC[C@@H]1CNCc2c1[nH]c(=O)c(C#N)c2N1CCC2(CC1)CC2
[1]
  delta Tm Staurosporine positive control: 6.5
  ΔTm: -1.81
[2]
  delta Tm Staurosporine positive control: 13.8
  ΔTm: -0.505
[3]
  inhibition: -1.01%
[4]
  delta Tm Staurosporine positive control: 17.8
  ΔTm: -0.386
[5]
  delta Tm Staurosporine positive control: 1.08
  ΔTm: -0.0823
[6]
  delta Tm Staurosporine positive control: 8.53
  ΔTm: -0.64
[7]
  inhibition: 3.32%
[8]
  inhibition: -0.07%
[9]
  delta Tm Staurosporine positive control: 3.2
  ΔTm: 0.159
[10]
  delta Tm Staurosporine positive control: -0.489
  ΔTm: -0.956
[11]
  delta Tm Staurosporine positive control: 11.2
  ΔTm: -0.4
[12]
  inhibition: -4.86%
[13]
  inhibition: -6.78%
[14]
  inhibition: -5.59%
[15]
  inhibition: -0.37%
[16]
  delta Tm Staurosporine positive control: 13.1
  ΔTm: -0.163
[17]
  delta Tm Staurosporine positive control: 11.4
  ΔTm: -0.372

## CCC[C@H]1CNCc2c1[nH]c(=O)c(C#N)c2N1CCC2(CC1)CC2
[1]
  delta Tm Staurosporine positive control: 6.5
  ΔTm: -1.58
[2]
  delta Tm Staurosporine positive control: 13.8
  ΔTm: -0.275
[3]
  inhibition: -0.66%
[4]
  delta Tm Staurosporine positive control: 17.8
  ΔTm: 3.11
[5]
  delta Tm Staurosporine positive control: 1.08
  ΔTm: -0.134
[6]
  delta Tm Staurosporine positive control: 8.53
  ΔTm: -0.0501
[7]
  inhibition: -1%
[8]
  inhibition: 2.5%
[9]
  delta Tm Staurosporine positive control: 3.2
  ΔTm: 0.0908
[10]
  delta Tm Staurosporine positive control: -0.489
  ΔTm: -0.134
[11]
  delta Tm Staurosporine positive control: 11.2
  ΔTm: -0.418
[12]
  inhibition: -6.26%
[13]
  inhibition: -6.31%
[14]
  inhibition: 3.16%
[15]
  inhibition: 0.28%
[16]
  delta Tm Staurosporine positive control: 13.1
  ΔTm: -0.145
[17]
  delta Tm Staurosporine positive control: 11.4
  ΔTm: -0.548
